Patent publication EP0089143A1, “Diagnosis of kidney function” (AMERSHAM INTERNATIONAL plc, priority 1982, dated 1983)

Tests used:
[1] = Biodistribution and renal clearance after injection into rats (bladder activity over time, dissection at 2 hr); assay type: in vivo; conditions: for % in bladder of that at 2 hrs.: group value (4-8 animals)
Protocol: Solutions of complexes ^*1 and ^*2 from Example 1 were injected into rats and the biodistribution pattern noted. The results of these experiments in rats are summarised in Table 1 below, comparing the data on ^*1 and ^*2 with earlier data on TDG-Tc-99m, Hippuran -1-131 and DTPA-Tc-99m under identical conditions. In all cases, data from animal experiments was used only when the renal performance appeared "normal", i.e. no unilateral or bilateral renal retention. Data was also rejected in cases of significant retention of activity at the injection site.
The solution was filtered through a 0.22 micron membrane filter prior to administration to rats.
The solution was filtered through a 0.22 micron membrane filter prior to adminstration to rats.
A sealed nitrogen filled vial, containing the freeze dried formulation of 20mg TDG, 0.15 mg SnF2, 1 mg NaF and 0.5 mg sodium nitrate was treated with 2 ml of eluate from a technetium generator (6mCi/ml). The vial was allowed to stand at ambient temperature for 10 minutes, then heated in a boiling water bath for 15 minutes.

[2] = removal from the blood in a single pass through the kidney; cited from earlier work
[3] = dissection at 2 hr, group value

O=C(O)CNC(=O)c1ccccc1[131I] [Hippuran-I-131, sodium iodo- hippurate, reference compound]
hepatobiliary excretion [1]: some hepatobiliary excretion | Dissection at 2 hr; % of injected dose: Bladder [1, 3]: 93.0 % of injected dose | Dissection at 2 hr; % of injected dose: Kidneys [1, 3]: 0.2 % of injected dose | Dissection at 2 hr; % of injected dose: Liver [1, 3]: 0.2 % of injected dose | % in bladder of that at 2 hrs. ([1]; time 5 min): 33.4% | % in bladder of that at 2 hrs. ([1]; time 10 min): 53.8% | % in bladder of that at 2 hrs. ([1]; time 15 min): 63.9% | % in bladder of that at 2 hrs. ([1]; time 20 min): 72.4% | % in bladder of that at 2 hrs. ([1]; time 25 min): 80.5% | % in bladder of that at 2 hrs. ([1]; time 30 min): 85.0% | % in bladder of that at 2 hrs. ([1]; time 60 min): 93.0% | removed in a single pass [2]: About 80%
